From US9845482B2, “Compositions and methods for enhancing bioenergetic status in female germ cells” (The General Hospital Corporation, priority 2011, dated 2017)

How the values were obtained:
[1] = system: aged female mice (C57BL/6); assay: Dietary supplementation of aged female mice: oocyte yield, maturation and quality after superovulation; assay type: in vivo; conditions: for percentage of mature, metaphase II oocytes retrieved following superovulation / quality of oocytes in aged mice: compared to age appropriate controls (Hist 12 M); for oocyte yield: diet for 3 months from 8.5 months of age, apigenin 0.5 g/kg, luteolin 0.5 g/kg, SRT-1720 2 g/kg, superovulation
Description: Yield, maturational status and post-fertilization developmental competency of oocytes obtained from 12-month-old (aged) female mice returned to an ad-libitum (AL) diet for 1 month following 7.5 months of dietary CR (CR-AL-fed) initiated in a stepwise fashion at 3.5 months of age were first evaluated. This protocol was based on prior work showing that female mice maintained on CR during adulthood continue to breed and deliver offspring into advanced ages after their return to an AL diet (Selesniemi et al. 2008 Aging Cell 7:622-629). Mice were superovulated by injection of pregnant mare serum gonadotropin (PMSG, 10 IU; Sigma Aldrich Corporation, St. Louis, Mo., USA) followed by human chorionic gonadotropin (hCG, 10 IU; Sigma Aldrich Corporation, St. Louis, Mo., USA) 46-48 hours later. Oocytes were collected from oviducts 15-16 hours after hCG injection, denuded of cumulus cells using hyaluronidase (Irvine Scientific, Santa Ana, Calif., USA), washed with human tubal fluid (HTF; Irvine Scientific, Santa Ana, Calif., USA) supplemented with BSA (fraction V, fatty acid-free; Sigma Aldrich Corporation, St. Louis, Mo., USA), and classified as MII (first polar body in perivitelline space), maturation arrested (germinal vesicle breakdown with no polar body extrusion, or germinal vesicle intact), or degenerated.
Female mice (8 months old, strain C57BL/6) were maintained on a 12:12 light dark cycle and provided ad-libitum access to water and food. Conditions within rooms were maintained at 21°±1° C. with 50%±20% relative humidity. Mice were placed on the experimental diets at 8.5 months of age and were maintained for 3 months on the diets. All diets were custom made, ordered from Research Diets: OpenStandard Diet (20 kcal % Protein, 15 kcal % Fat and 65 kcal % Carbohydrate) and the experimental groups consisted of regular OpenStandard Diet, OpenStandard Diet+Apigenin at 0.5 g/kg of body weight, OpenStandard Diet+Luteolin at 0.5 g/kg, and OpenStandard Diet+SRT-1720 at 2 g/kg. Food intake was measured weekly and average weight gain was assessed every two weeks. Each experimental group consisted of 12 randomly allocated mice. When mice were euthanized an additional group of 3-month old C57BL/6 females (3 M) were used as positive controls. In all groups, oocyte numbers were assessed following hormonal stimulation for superovulation.
Because of the extremely low yield of oocytes from the aged control females, historical data for oocyte yield from 12-month-old C57BL/6 females (referred to as “Hist 12 M”; from Selesniemi et al., Proc Natl Acad Sci USA. 2011 July 26; 108(30): 12319-12324) can be used as an additional reference point for an aged control group.
In FIG. 45A, the percentage of oocytes assessed at metaphase II is shown. In FIG. 45B, the percentage of oocytes arrested at the germinal vesicle (immature) stage is shown. In FIG. 45C, the percentage of atretic (dead) oocytes is shown.

Mouse OSCs = assay: NAD+ and NADH levels in mouse OSCs treated with mitochondrial enhancers; assay type: cell-based; conditions: 24 hours
Experimental: FIG. 35 depicts levels of NAD+ (A) and NADH (B) in OSCs treated with mitochondrial enhancers. Mouse OSCs maintained in culture (Zou et al., Nat Cell Biol 2009 11:631-636) were exposed to the indicated test compounds for 24 hours and then assessed for levels of NAD+ and NADH. Female infertility due to chemotherapy, aging and premature ovarian failure (POF) is due in part to a decline in mitochondrial function in oocytes and OSCs. Accordingly, OSCs from mice were used to screen for small compounds that enhance mitochondrial function (“bioenergetic status”) in female germline cells. Assays for enhancing mitochondrial function included mtDNA content, ATP, NAD+/NADH, mitochondrial mass, mitochondrial membrane potential, and gene expression of known mitochondrial mass regulators and electron transport chain components. All the compounds were dissolved in DMSO. For screening purposes the cells were treated with the vehicle (0.001% DMSO) or with 25 or 50 μM of each compound (except for berberine, which the concentrations used for the screen were 5 μM and 25 μM) for 24 hours. For validation of the top 6 hits, cells were treated with vehicle (0.001% DMSO) or either 5 or 25 μM of each compound for 24 hours. For the gene expression profile, the cells were treated with the concentration that was considered to work better in the previous validation assays.

Structure (SMILES) | percentage of mature, metaphase II oocytes retrieved following superovulation [1] | quality of oocytes in aged mice [1] | oocyte yield [1] | NAD^+ levels (Mouse OSCs)
O=C(Nc1ccccc1-c1cn2c(CN3CCNCC3)csc2n1)c1cnc2ccccc2n1 [SRT-1720, N-[2[3-(piperazin-1-ylmethyl)imidazo[2,1-b][1,3]thiazol-6-yl]phenyl]quinoxaline-2-carboxamide] | do not affect | improve the quality of oocytes | increase oocyte yield | –
O=c1cc(-c2ccc(O)cc2)oc2cc(O)cc(O)c12 [apigenin, 5,7-Dihydroxy-2-(4-hydroxyphenyl)-4H-1-benzopyran-4-one] | do not affect | improve the quality of oocytes | increase oocyte yield | raise
O=c1cc(-c2ccc(O)c(O)c2)oc2cc(O)cc(O)c12 [luteolin, 2-(3,4-Dihydroxyphenyl)-5,7-dihydroxy-4-chromenone] | do not affect | improve the quality of oocytes | increase oocyte yield | raise
